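Dose response: 5 concentrations. Exposure: 48 h. Format: 96-well plates. Endpoint: linear interpolation; highest concentration if not reached. GI50: concentration for 50% inhibition of growth.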 Activity calls are given as the source filed them. No stated cut-off is given here; in the data, active = GI50 up to about 1.1 µM and inactive = higher.
Assays:
Assay in all cases: NCI tumour cell line growth inhibition, 48 h
KM12 = test system: KM12
SK-MEL-2 = test system: SK-MEL-2
UACC-62 = test system: UACC-62
TK-10 = test system: TK-10
A549 = test system: A549
NCI-H460 = test system: NCI-H460
NCI/ADR-RES = test system: NCI/ADR-RES
EKVX = test system: EKVX
OVCAR-4 = test system: OVCAR-4
HOP-92 = test system: HOP-92
U-251 = test system: U-251
HCT-15 = test system: HCT-15
MCF7 = test system: MCF7
CAKI-1 = test system: CAKI-1
NCI-H23 = test system: NCI-H23
ACHN = test system: ACHN
M14 = test system: M14
786-0 = test system: 786-0
SN12C = test system: SN12C
HCC 2998 = test system: HCC 2998

Measured: GI50

COc1cc2c(cc1OC)C13CCN4CC5=CCOC(CC(=O)O)C(C5CC41)C3N2 (centres undefined)
inactive: KM12 > 100 µM | SK-MEL-2 > 100 µM | UACC-62 > 100 µM | TK-10 > 100 µM | A549 > 100 µM | NCI-H460 > 100 µM | NCI/ADR-RES > 100 µM | EKVX > 100 µM | OVCAR-4 > 100 µM | HOP-92 78.3 µM | U-251 > 100 µM | MCF7 > 100 µM | CAKI-1 > 100 µM | NCI-H23 > 100 µM | ACHN > 100 µM | M14 > 100 µM | 786-0 > 100 µM | SN12C > 100 µM
> 100 µM: HCT-15

C#CCNC(=O)CCC(N)C(=O)O (centres undefined)
inactive: KM12 > 100 µM | SK-MEL-2 > 100 µM | UACC-62 > 100 µM | HCC 2998 > 100 µM | A549 > 100 µM | NCI-H460 > 100 µM | NCI/ADR-RES > 100 µM | EKVX > 100 µM | OVCAR-4 > 100 µM | HOP-92 > 100 µM | U-251 > 100 µM | MCF7 > 100 µM | CAKI-1 > 100 µM | NCI-H23 > 100 µM | SN12C > 100 µM
> 100 µM: HCT-15

COc1ccc(-c2c3c(nc4[nH]c(=S)[nH]c(=S)c24)CCCC3)cc1OC
30.1 µM: HCT-15
inactive: KM12 30.9 µM | UACC-62 19.6 µM | TK-10 17.6 µM | A549 21.3 µM | NCI-H460 18.5 µM | NCI/ADR-RES 21.5 µM | EKVX 22.4 µM | OVCAR-4 36.6 µM | U-251 18.4 µM | MCF7 29.6 µM | CAKI-1 34.7 µM | NCI-H23 29.3 µM | ACHN 51.1 µM | M14 28.6 µM | SN12C 13.5 µM

CCOC(=O)C1(C(C)=O)OC(=O)c2cnccc21 (centres undefined)
inactive: KM12 > 100 µM | SK-MEL-2 > 100 µM | UACC-62 > 100 µM | HCC 2998 > 100 µM | A549 > 100 µM | NCI-H460 > 100 µM | NCI/ADR-RES > 100 µM | EKVX > 100 µM | HOP-92 > 100 µM | U-251 > 100 µM | MCF7 > 100 µM | CAKI-1 > 100 µM | NCI-H23 > 100 µM | ACHN > 100 µM | M14 > 100 µM | 786-0 > 100 µM | SN12C > 100 µM
> 100 µM: HCT-15

COP(=O)(OC)C(Cc1c[nH]c2ccccc12)NC(=O)OCc1ccccc1 (centres undefined)
> 100 µM: HCT-15
inactive: SK-MEL-2 > 100 µM | TK-10 > 100 µM | HCC 2998 > 100 µM | A549 > 100 µM | NCI-H460 > 100 µM | NCI/ADR-RES > 100 µM | OVCAR-4 91 µM | HOP-92 > 100 µM | U-251 > 100 µM | MCF7 > 100 µM | CAKI-1 > 100 µM | NCI-H23 > 100 µM | ACHN > 100 µM | M14 > 100 µM | SN12C > 100 µM

C[C@H](N)C(=O)N[C@@H]1[C@H]2C(=C(O)C[C@@H](O)[C@@H]2O)C(=O)O[C@@H]1C
> 100 µM: HCT-15
inactive: KM12 > 100 µM | SK-MEL-2 > 100 µM | UACC-62 > 100 µM | HCC 2998 > 100 µM | A549 > 100 µM | NCI-H460 > 100 µM | NCI/ADR-RES > 100 µM | EKVX > 100 µM | OVCAR-4 > 100 µM | HOP-92 > 100 µM | U-251 > 100 µM | MCF7 > 100 µM | CAKI-1 > 100 µM | NCI-H23 > 100 µM | SN12C > 100 µM

COc1cc(S(=O)(=O)Nc2ccc(-c3csc(/N=C\c4cccc(Oc5ccccc5)c4)n3)cc2)ccc1Cl
inactive: KM12 31.8 µM | SK-MEL-2 40.5 µM | UACC-62 6.44 µM | A549 4.62 µM | NCI/ADR-RES 96.4 µM | EKVX 8.39 µM | OVCAR-4 41.8 µM | HOP-92 20.1 µM | MCF7 5.2 µM | CAKI-1 74.8 µM | NCI-H23 45.9 µM | ACHN 15.5 µM | M14 17 µM | 786-0 5.58 µM | SN12C 25.1 µM
35.6 µM: HCT-15

C=CC(OC(=O)C(C)C)c1ccc(OC(=O)C(C)C)cc1 (centres undefined)
inactive: KM12 2.21 µM | SK-MEL-2 11.2 µM | UACC-62 15.8 µM | HCC 2998 13.1 µM | A549 19.5 µM | NCI-H460 13.9 µM | NCI/ADR-RES 14.2 µM | EKVX 22.4 µM | OVCAR-4 14.8 µM | HOP-92 16.7 µM | U-251 4.33 µM | MCF7 3.3 µM | CAKI-1 2.56 µM | NCI-H23 20 µM | ACHN 14.6 µM | M14 7.67 µM | 786-0 4.69 µM | SN12C 14 µM
5.74 µM: HCT-15

COC1=C(C)C(=O)C2=C(C1=O)[C@@H]1[C@@H]3Cc4c(OC(=O)CO)c(C)c(OC)c(O)c4[C@H](CNC(=O)C(C)=O)N3[C@@H](C#N)[C@H](C2)N1C
active: KM12 0.108 µM | SK-MEL-2 < 0.0189 µM | UACC-62 < 0.0208 µM | HCC 2998 0.0472 µM | A549 0.366 µM | NCI-H460 0.107 µM | NCI/ADR-RES 1.08 µM | EKVX < 0.0405 µM | OVCAR-4 0.106 µM | HOP-92 < 0.0119 µM | U-251 0.029 µM | MCF7 0.0332 µM | CAKI-1 < 0.01 µM | NCI-H23 < 0.011 µM | SN12C 0.013 µM
< 0.01 µM: HCT-15

Cc1ccc(C(=O)N/N=C(\N=N\c2cccc([N+](=O)[O-])c2)c2ccc(N(C)C)cc2)cc1
50.7 µM: HCT-15
inactive: KM12 64.9 µM | SK-MEL-2 > 100 µM | TK-10 > 100 µM | HCC 2998 > 100 µM | A549 > 100 µM | NCI-H460 57.7 µM | NCI/ADR-RES 41.8 µM | EKVX 25.2 µM | OVCAR-4 24.4 µM | HOP-92 > 100 µM | U-251 > 100 µM | MCF7 > 100 µM | CAKI-1 68.1 µM | NCI-H23 > 100 µM | M14 29.2 µM | 786-0 > 100 µM | SN12C > 100 µM

CCOC(=O)C1=C(C)N(c2ccc(Cl)cc2)C2(O)C=CC(Nc3ccc(Cl)cc3)=C3C(=O)N(c4ccccc4)C(=O)C312 (centres undefined)
active: HOP-92 0.791 µM
3.45 µM: HCT-15
inactive: KM12 4.34 µM | SK-MEL-2 2.58 µM | UACC-62 1.44 µM | TK-10 13.6 µM | A549 3.52 µM | NCI-H460 2.11 µM | NCI/ADR-RES 2.75 µM | OVCAR-4 3.15 µM | U-251 4.85 µM | MCF7 2.05 µM | CAKI-1 1.87 µM | NCI-H23 5.42 µM | ACHN 6.75 µM | M14 3.13 µM | SN12C 2.45 µM

CC1=Nc2nc(Cl)cn2C(=O)C1(Cl)Cl
> 10 µM: HCT-15
inactive: KM12 > 10 µM | SK-MEL-2 > 10 µM | UACC-62 > 10 µM | TK-10 > 10 µM | HCC 2998 > 10 µM | A549 > 10 µM | NCI-H460 > 10 µM | NCI/ADR-RES > 10 µM | EKVX > 10 µM | OVCAR-4 > 10 µM | U-251 > 10 µM | MCF7 > 10 µM | CAKI-1 > 10 µM | NCI-H23 > 10 µM | ACHN > 10 µM | M14 > 10 µM | SN12C > 10 µM

C/C(N)=N/OCc1nc(C)no1
> 100 µM: HCT-15
inactive: KM12 > 100 µM | UACC-62 > 100 µM | TK-10 > 100 µM | HCC 2998 > 100 µM | A549 > 100 µM | NCI-H460 > 100 µM | NCI/ADR-RES > 100 µM | EKVX > 100 µM | OVCAR-4 > 100 µM | U-251 > 100 µM | MCF7 > 100 µM | CAKI-1 > 100 µM | NCI-H23 > 100 µM | ACHN > 100 µM | M14 > 100 µM | 786-0 > 100 µM | SN12C > 100 µM

CC12CCC(C(=O)OC1=O)C(C)(C)O2 (centres undefined)
inactive: KM12 > 100 µM | SK-MEL-2 > 100 µM | UACC-62 > 100 µM | TK-10 > 100 µM | HCC 2998 > 100 µM | A549 > 100 µM | NCI-H460 > 100 µM | NCI/ADR-RES > 100 µM | EKVX > 100 µM | OVCAR-4 > 100 µM | HOP-92 > 100 µM | U-251 > 100 µM | MCF7 > 100 µM | CAKI-1 > 100 µM | NCI-H23 > 100 µM | ACHN > 100 µM | M14 > 100 µM | SN12C > 100 µM

CC(=O)NC(CCC(=O)C=[N+]=[N-])C(=O)O (centres undefined)
> 100 µM: HCT-15
inactive: KM12 > 100 µM | SK-MEL-2 > 100 µM | UACC-62 > 100 µM | TK-10 > 100 µM | HCC 2998 > 100 µM | A549 > 100 µM | NCI-H460 > 100 µM | NCI/ADR-RES > 100 µM | EKVX > 100 µM | OVCAR-4 > 100 µM | HOP-92 > 100 µM | U-251 > 100 µM | MCF7 > 100 µM | NCI-H23 > 100 µM | ACHN > 100 µM | M14 > 100 µM | 786-0 > 100 µM | SN12C > 100 µM

Nc1ccn(C2OC(CO)C(O)C2O)c(=O)c1 (centres undefined)
> 625 µM: HCT-15
inactive: KM12 > 625 µM | UACC-62 337 µM | HCC 2998 63.2 µM | A549 179 µM | NCI-H460 38.7 µM | NCI/ADR-RES 180 µM | OVCAR-4 285 µM | HOP-92 279 µM | U-251 > 625 µM | MCF7 188 µM | CAKI-1 176 µM | NCI-H23 > 625 µM | SN12C 108 µM

— ChEMBL document CHEMBL1201862, “PubChem BioAssay data set” (2004)
